The source of these data is patent US4618622A, “Sulfonates of hydroxycoumarins” (priority 1982, dated 1986).

Like-named read-outs stand apart in the source and are kept apart here.

In test [1] the test system is reserpine-induced hypothermia. As to the kind of experiment: Antidepressant action: inhibition of reserpine-induced hypothermia (reserpine test). It counts as in vivo, mouse (male, Swiss strain). The conditions noted are these: read-out: Antidepressant action (mouse) ED50. The protocol:
The test substances are administered orally, 60 minutes before the reserpine.

Test [2] addresses T1, Monoaminoxidase A (Rattus norvegicus, UniProt P21396).
T1 sequence (P21396 1-526): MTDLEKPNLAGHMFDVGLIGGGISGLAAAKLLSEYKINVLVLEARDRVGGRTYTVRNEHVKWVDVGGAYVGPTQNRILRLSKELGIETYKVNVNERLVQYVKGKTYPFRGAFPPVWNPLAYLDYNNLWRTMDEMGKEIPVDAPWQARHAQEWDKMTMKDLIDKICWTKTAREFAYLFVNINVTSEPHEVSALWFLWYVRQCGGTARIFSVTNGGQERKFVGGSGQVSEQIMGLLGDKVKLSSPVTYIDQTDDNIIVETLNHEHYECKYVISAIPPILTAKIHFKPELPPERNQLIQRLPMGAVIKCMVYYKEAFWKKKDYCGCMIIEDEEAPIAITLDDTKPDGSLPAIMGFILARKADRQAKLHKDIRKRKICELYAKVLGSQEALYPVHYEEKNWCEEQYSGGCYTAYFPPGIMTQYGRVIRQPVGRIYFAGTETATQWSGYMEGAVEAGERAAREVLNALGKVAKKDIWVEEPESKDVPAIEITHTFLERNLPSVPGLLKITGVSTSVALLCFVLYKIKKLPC
As to the kind of experiment: biochemical. The conditions noted are these: read-out: Monoaminoxidase inhibition IC50. The protocol:
Monoaminoxidase A is determined in dilute rat brain homogenate to which
1. various concentrations of the test substances and
2. ^14 C-tryptamine in a concentration of 0.4 μmol/liter are added. This mixture is incubated at 37° C. for 20 minutes, after which the reaction is terminated by means of aqueous 0.1N HCl, and the products are extracted with toluene scintillator (PPO+POPOP in toluene) and then determined. The blank value is determined in similar mixtures for an incubation time of t=0 minutes.
The mean inhibitory concentration (IC50) is calculated from the inhibitory values determined, in comparison with the control, at the various inhibitor concentrations, by means of a linear regression after logit-log transformation.

In test [3] the target is T1, Monoaminoxidase A. The conditions noted are these: in words, known for the comparative substance; cited from earlier work.
[4] abbreviates: oral administration, 60 minutes before reserpine 2.15 mg/kg s.c., mouse, temperature 2 hours after.
The mark [5] stands for this setting: monoaminoxidase A, rat brain homogenate, 14C-tryptamine 0.4 μmol/liter, 37° C., 20 minutes.

A word on the ED50: it is the dose that gives a 50% effect, or the effect in half of the subjects. The term IC50 denotes the concentration that gives 50% inhibition. Consider `CCCS(=O)(=O)Oc1ccc2c(C)c(C)c(=O)oc2c1` [Example 22, 7-Hydroxy-3,4-dimethylcoumarin propanesulfonate], for which the ED50 in test [1] (setting [4]) is 1.4 mg/kg. For the same compound, the concentration for half-maximal inhibition (IC50) at Monoaminoxidase A [2] (setting [5]) stood at 9.6 nM.

For `Cc1c(C)c2ccc(OS(=O)(=O)C(C)C)cc2oc1=O` [Example 23, 7-Hydroxy-3,4-dimethylcoumarin isopropanesulfonate], in test [1] (setting [4]), the median effective dose (ED50) is 3.1 mg/kg. The IC50 on Monoaminoxidase A [2] (setting [5]) amounted to 3.7 nM.

On to `Cc1c(C)c2ccc(OS(=O)(=O)C(F)(F)F)cc2oc1=O` [Example 24, 7-Hydroxy-3,4-dimethylcoumarin trifluoromethanesulfonate], for which the ED50 in test [1] (setting [4]) was 3.7 mg/kg. For the same compound, the concentration for half-maximal inhibition (IC50) at Monoaminoxidase A [2] (setting [5]) came to 75 nM.

As for `CCCCS(=O)(=O)Oc1ccc2c(C)c(C)c(=O)oc2c1` [Example 26, 7-Hydroxy-3,4-dimethylcoumarin butanesulfonate], in test [1] (setting [4]), the ED50 came to 1.8 mg/kg. Also, the half-inhibitory concentration (IC50) on Monoaminoxidase A [2] (setting [5]) stood at 7.3 nM.

For `Cc1cc2ccc(OS(=O)(=O)c3ccc(Cl)cc3)cc2oc1=O` [Example 30, 7-Hydroxy-3-methylcoumarin 4'-chlorobenzenesulfonate], the 50% effective dose (ED50) in test [1] (setting [4]) was determined as 9 mg/kg. Also, the IC50 at Monoaminoxidase A [2] (setting [5]) is 6.3 nM.

Turning to `Cc1cc(=O)oc2cc(OS(=O)(=O)c3ccc(Cl)cc3)ccc12` [Example 40, 7-Hydroxy-4-methylcoumarin 4'-chlorobenzenesulfonate], in test [1] (Mus musculus, po, 2 h), the median effective dose (ED50) amounted to 8.7 mg/kg. Further, the half-inhibitory concentration (IC50) at Monoaminoxidase A [2] (setting [5]) was determined as 6.5 nM.

Turning to `Cc1cc(=O)oc2cc(OS(C)(=O)=O)ccc12` [Example 42, 7-Hydroxy-4-methylcoumarin methanesulfonate], the ED50 in test [1] (setting [4]) worked out at 19.6 mg/kg. Besides, the IC50 at Monoaminoxidase A [2] (setting [5]) was found to be 130 nM.

As for `Cc1c(C)c2ccc(OS(=O)(=O)CC(C)C)cc2oc1=O` [Example 52, 7-Hydroxy-3,4-dimethylcoumarin 2'-methylpropanesulfonate], the median effective dose (ED50) in test [1] (setting [4]) came to 0.3 mg/kg. The IC50 at Monoaminoxidase A [2] (setting [5]) came to 5.7 nM.

In the case of `C#CCN(C)Cc1ccccc1` [Pargyline, reference compound], the ED50 in test [1] (setting [4]) was determined as 48 mg/kg. Also, the IC50 at Monoaminoxidase A [2] amounted to 2000 nM. Further, the “action mechanism (known)” value on Monoaminoxidase A [3] is recorded as “inhibition of monoaminoxidase A”.
